Patent US20250326794A1, “ANTI-CANCER LEUCINE-RICH PEPTIDES AND USES THEREOF” (KING'S COLLEGE LONDON, priority 2019, published 2025)
Where two headings read alike, the source gives them in different places.

How the values were obtained:
[1] = tested on: HEK293T (human embryonic kidney cell); assay: cells
From the text: (§1) HMLER (human mammary endothelial cancer cells), HMLER-shEcad (human mammary endothelial cancer stem cells), and MCF-10A (healthy human mammary endothelial) cells were maintained in Mammary Epithelial Cell Growth Medium (MEGM) with supplements and growth factors: bovine pituitary extract (BPE), hydrocortisone, human epidermal growth factor (hEGF), insulin, and gentamicin/amphotericin-B. HEK293T (human embryonic kidney cell), and U2OS (Homo sapiens bone osteosarcoma) cells were maintained in Dulbecco's Modified Eagle's Medium (DMEM) with a final concentration of 10% fetal bovine serum. The cells were grown in T75 flask at 310 K in a humidified atmosphere containing 5% CO2.
(§2) The colourimetric MTT (3-(4,5-dimethylthiazol-2-yl)-2,5-diphenyltetrazolium bromide) assay was used to determine the toxicity of the anticancer peptides and conventional anticancer drugs. 5×10^3 cells were seeded in each well of a 96-well microplate. The cells were incubated overnight. Elevated concentrations of the compounds (0, 0.1, 0.2, 0.4, 0.8, 1.6, 3.1, 6.3, 12.5, 25, 50 and 100 μM) were added and incubated for 72 hr with a total volume 200 μL. The stock solutions of the compounds were prepared as 5 mM solutions in DMSO and diluted using media or in pure water. The final concentration of DMSO in each well was either 0.5% or 0% and this amount was present in the untreated control. After 72 hr, 20 μL of a 4 mg/mL solution of MTT in PBS was added to each well, and the plate was incubated for an additional 4 hr. The MEGM/MTT mixture was aspirated and 100 μL of DMSO was added to dissolve the resulting purple formazan crystals. The absorbance of the solutions in each well was read at 550 nm wavelength. Absorbance values were normalized to either DMSO-containing or non DMSO-containing control wells and plotted as concentration of test compound versus % cell viability. IC50 values were interpolated from the resulting dose dependent curves.
(§3) The peptides were screened against several different human cell lines and their cytotoxicity were determined. Cell lines utilised include MCF-10A (human breast epithelial cell), HMLER (human breast cancer bulk cell), HMLER-shEcad (human breast cancer stem cell), HEK293T (human embryonic kidney cell), and U2OS (human bone osteosarcoma).

[2] = tested on: HMLER (human breast cancer bulk cell); assay: cells
From the text: as §1, §2, §3

[3] = tested on: HMLER-shEcad (human breast cancer stem cell); assay: cells
From the text: as §1, §2, §3

[4] = tested on: U2OS (human bone osteosarcoma)
From the text: as §1, §2, §3

Compound | IC50 ([1]; 72 h) | IC50 ([2]; 72 h) | IC50 ([3]; 72 h) | IC50 ([4]; 72 h) | IC50 ([1]; read-out: IC50 HEK293T, MTT, 72 hr) | IC50 ([2]; read-out: IC50 HMLER, MTT, 72 hr) | IC50 ([3]; read-out: IC50 HMLER-shEcad, MTT, 72 hr) | IC50 ([4]; read-out: IC50 U20S, MTT, 72 hr)
CC(C)C[C@@H](NC(=O)CN)C(=O)N[C@H](CC(C)C)C(=O)N[C@H](CC(=O)O)C(=O)N[C@H](CC(C)C)C(=O)N[C@H](CC(C)C)C(=O)N[C@H](CCC(=O)O)C(=O)N[C@H](CC(C)C)C(=O)N[C@H](CC(C)C)C(=O)N[C@H](CC(C)C)C(=O)N[C@H](CCCCN)C(=O)N[C@H](C)C(=O)N[C@H](C)C(=O)NCC(=O)N[C@H](Cc1c[nH]c2ccccc12)C(N)=O [D-form DEK] | 3280 ± 210 nM | 440 ± 100 nM | 360 nM | 5840 ± 40 nM |  |  |  | 
CC(C)C[C@@H](NC(=O)CN)C(=O)N[C@H](CC(C)C)C(=O)N[C@H](CC(=O)O)C(=O)N[C@H](CC(C)C)C(=O)N[C@H](CC(C)C)C(=O)N[C@H](Cc1c[nH]cn1)C(=O)N[C@H](CC(C)C)C(=O)N[C@H](CC(C)C)C(=O)N[C@H](CC(C)C)C(=O)N[C@H](CCCCN)C(=O)N[C@H](C)C(=O)N[C@H](C)C(=O)NCC(=O)N[C@H](Cc1c[nH]c2ccccc12)C(N)=O [D-form DHK] |  |  |  |  | 1550 ± 370 nM | 320 ± 70 nM | 230 ± 40 nM | 1240 ± 30 nM
